Results: PubChem BioAssay AID1919005 (Molecular Pharmacology Branch, DTP, NCI, 2023)
pIC50: −log10 of the molar value. Where “and” joins values, the source holds several entries; their conditions need not be identical. Equal entries are not always repeated.

Tested on: 855422-203-R-J1-PDC complex spheroid growth
Assay: Anticancer human tumor 855422-203-R-J1-PDC patient-derived bladder carcinoma cell line growth inhibition [AhR]
Settings: for viability, T/C: stronger effect = lower value
In short: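 Spheroids combined tumor cells with HUVEC endothelial cells and human MSCs as stroma. AhR antagonists were paired with standard or investigational drugs, each dosed in half-log steps down from near clinical Cmax, or from 10 microM where Cmax was unknown.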

[1] = curve of first compound, second compound 0.1 µM
[2] = curve of first compound, second compound 0.316 µM
[3] = curve of first compound, second compound 1 µM
[4] = curve of first compound, second compound 3.16 µM
[5] = curve of first compound, second compound 10 µM
[6] = second compound 0.1 µM, first compound 0.0316 µM
[7] = second compound 0.1 µM, first compound 0.1 µM
[8] = second compound 0.1 µM, first compound 0.316 µM
[9] = second compound 0.1 µM, first compound 1 µM
[10] = second compound 0.1 µM, first compound 3.16 µM
[11] = second compound 0.1 µM, first compound 10 µM
[12] = second compound 0.316 µM, first compound 0.0316 µM
[13] = second compound 0.316 µM, first compound 0.1 µM
[14] = second compound 0.316 µM, first compound 0.316 µM
[15] = second compound 0.316 µM, first compound 1 µM
[16] = second compound 0.316 µM, first compound 3.16 µM
[17] = second compound 0.316 µM, first compound 10 µM
[18] = second compound 1 µM, first compound 0.0316 µM
[19] = second compound 1 µM, first compound 0.1 µM
[20] = second compound 1 µM, first compound 0.316 µM
[21] = second compound 1 µM, first compound 1 µM
[22] = second compound 1 µM, first compound 3.16 µM
[23] = second compound 1 µM, first compound 10 µM
[24] = second compound 3.16 µM, first compound 0.0316 µM
[25] = second compound 3.16 µM, first compound 0.1 µM
[26] = second compound 3.16 µM, first compound 0.316 µM
[27] = second compound 3.16 µM, first compound 1 µM
[28] = second compound 3.16 µM, first compound 3.16 µM
[29] = second compound 3.16 µM, first compound 10 µM
[30] = second compound 10 µM, first compound 0.0316 µM
[31] = second compound 10 µM, first compound 0.1 µM
[32] = second compound 10 µM, first compound 0.316 µM
[33] = second compound 10 µM, first compound 1 µM
[34] = second compound 10 µM, first compound 3.16 µM
[35] = second compound 10 µM, first compound 10 µM
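Also: spheroids exposed to agents for seven days before readout.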
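For viability, T/C in this document: percent of DMSO vehicle control luminescence viability.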

COc1cc(C2c3cc4c(cc3C(OC3OC5COC(C)OC5C(O)C3O)C3COC(=O)C23)OCO4)cc(OC)c1O (stereo not drawn) + Cc1ccccc1N=Nc1ccc(NC(=O)c2ccnn2C)c(C)c1
pIC50 [1]: 6.33
pIC50 [2]: 6.33
pIC50 [3]: 6.30
pIC50 [4]: 6.36
pIC50 [5]: 6.43
viability, T/C [6]: 96.5%
viability, T/C [7]: 93.2%
viability, T/C [8]: 60.8%
viability, T/C [9]: 26.7%
viability, T/C [10]: 15.2%
viability, T/C [11]: 7.04%
viability, T/C [12]: 93.7%
viability, T/C [13]: 96.6%
viability, T/C [14]: 61%
viability, T/C [15]: 24.6%
viability, T/C [16]: 14.8%
viability, T/C [17]: 6.03%
viability, T/C [18]: 98.8%
viability, T/C [19]: 95.7%
viability, T/C [20]: 65%
viability, T/C [21]: 26.5%
viability, T/C [22]: 15.9%
viability, T/C [23]: 6.19%
viability, T/C [24]: 82.9%
viability, T/C [25]: 83.9%
viability, T/C [26]: 58.1%
viability, T/C [27]: 25.3%
viability, T/C [28]: 12.4%
viability, T/C [29]: 5.67%
viability, T/C [30]: 83%
viability, T/C [31]: 82.8%
viability, T/C [32]: 48.3%
viability, T/C [33]: 29.8%
viability, T/C [34]: 13.7%
viability, T/C [35]: 7.06%

CC1(C)CCC(CN2CCN(c3ccc(C(=O)NS(=O)(=O)c4ccc(NCC5CCOCC5)c([N+](=O)[O-])c4)c(Oc4cnc5[nH]ccc5c4)c3)CC2)=C(c2ccc(Cl)cc2)C1
viability, T/C (compound 0.0316 µM): 98.4% and 107% and 103%
viability, T/C (compound 0.1 µM): 95.8% and 106% and 98.7%
viability, T/C (compound 0.316 µM): 108% and 103% (2×)
viability, T/C (compound 1 µM): 97.6% and 116% and 104%
viability, T/C (compound 3.16 µM): 108% and 118% and 100%
viability, T/C (compound 10 µM): 13.2% and 22.8% and 8.45%
pIC50 (curve of compound): 5.21 and 5.16 and 5.23

Nc1ccn(C2OC(CO)C(O)C2(F)F)c(=O)n1 (stereo not drawn) + CC(CO)NC(=O)c1cc(-c2ccc(Cl)cc2)nn(-c2cnn(C)c2)c1=O
pIC50 [1]: 6.63
pIC50 [2]: 6.78
pIC50 [3]: 6.76
pIC50 [4]: 7.00
pIC50 [5]: 6.88
viability, T/C [6]: 99.4%
viability, T/C [7]: 79.7%
viability, T/C [8]: 38.5%
viability, T/C [9]: 18.7%
viability, T/C [10]: 14.4%
viability, T/C [11]: 10.5%
viability, T/C [12]: 88.4%
viability, T/C [13]: 71.2%
viability, T/C [14]: 22.9%
viability, T/C [15]: 15.9%
viability, T/C [16]: 13.2%
viability, T/C [17]: 8.62%
viability, T/C [18]: 97.8%
viability, T/C [19]: 74.3%
viability, T/C [20]: 23.9%
viability, T/C [21]: 17.8%
viability, T/C [22]: 14.4%
viability, T/C [23]: 8.17%
viability, T/C [24]: 89.9%
viability, T/C [25]: 50.2%
viability, T/C [26]: 22.2%
viability, T/C [27]: 16.1%
viability, T/C [28]: 11.3%
viability, T/C [29]: 9.74%
viability, T/C [30]: 81.3%
viability, T/C [31]: 59.6%
viability, T/C [32]: 19.9%
viability, T/C [33]: 14.6%
viability, T/C [34]: 14.5%
viability, T/C [35]: 8.36%

CCc1c2c(nc3ccc(O)cc13)-c1cc3c(c(=O)n1C2)COC(=O)[C@]3(O)CC + CC(CO)NC(=O)c1cc(-c2ccc(Cl)cc2)nn(-c2cnn(C)c2)c1=O
pIC50 [1]: 8.28
pIC50 [2]: 8.35
pIC50 [3]: 8.47
pIC50 [4]: 8.72
pIC50 [5]: 8.83
viability, T/C (second compound 0.1 µM, first compound 0.000949 µM): 95.5%
viability, T/C (second compound 0.1 µM, first compound 0.003 µM): 78.9%
viability, T/C (second compound 0.1 µM, first compound 0.00949 µM): 19.4%
viability, T/C (second compound 0.1 µM, first compound 0.03 µM): 13.2%
viability, T/C (second compound 0.1 µM, first compound 0.0949 µM): 9.5%
viability, T/C (second compound 0.1 µM, first compound 0.3 µM): 6.28%
viability, T/C (second compound 0.316 µM, first compound 0.000949 µM): 85.6%
viability, T/C (second compound 0.316 µM, first compound 0.003 µM): 68.7%
viability, T/C (second compound 0.316 µM, first compound 0.00949 µM): 15.6%
viability, T/C (second compound 0.316 µM, first compound 0.03 µM): 12.3%
viability, T/C (second compound 0.316 µM, first compound 0.0949 µM): 6.86%
viability, T/C (second compound 0.316 µM, first compound 0.3 µM): 4.21%
viability, T/C (second compound 1 µM, first compound 0.000949 µM): 86.5%
viability, T/C (second compound 1 µM, first compound 0.003 µM): 54.7%
viability, T/C (second compound 1 µM, first compound 0.00949 µM): 13.9%
viability, T/C (second compound 1 µM, first compound 0.03 µM): 11%
viability, T/C (second compound 1 µM, first compound 0.0949 µM): 6.82%
viability, T/C (second compound 1 µM, first compound 0.3 µM): 4.24%
viability, T/C (second compound 3.16 µM, first compound 0.000949 µM): 72.2%
viability, T/C (second compound 3.16 µM, first compound 0.003 µM): 36.3%
viability, T/C (second compound 3.16 µM, first compound 0.00949 µM): 12.8%
viability, T/C (second compound 3.16 µM, first compound 0.03 µM): 10.2%
viability, T/C (second compound 3.16 µM, first compound 0.0949 µM): 6.61%
viability, T/C (second compound 3.16 µM, first compound 0.3 µM): 4.22%
viability, T/C (second compound 10 µM, first compound 0.000949 µM): 65.5%
viability, T/C (second compound 10 µM, first compound 0.003 µM): 25.4%
viability, T/C (second compound 10 µM, first compound 0.00949 µM): 12.6%
viability, T/C (second compound 10 µM, first compound 0.03 µM): 9.84%
viability, T/C (second compound 10 µM, first compound 0.0949 µM): 6.11%
viability, T/C (second compound 10 µM, first compound 0.3 µM): 4.31%

COc1cc(C2c3cc4c(cc3C(OC3OC5COC(C)OC5C(O)C3O)C3COC(=O)C23)OCO4)cc(OC)c1O (stereo not drawn) + CC(CO)NC(=O)c1cc(-c2ccc(Cl)cc2)nn(-c2cnn(C)c2)c1=O
pIC50 [1]: 6.26
pIC50 [2]: 6.24
pIC50 [3]: 6.30
pIC50 [4]: 6.49
pIC50 [5]: 6.60
viability, T/C [6]: 104%
viability, T/C [7]: 93.5%
viability, T/C [8]: 72.9%
viability, T/C [9]: 25.6%
viability, T/C [10]: 12.7%
viability, T/C [11]: 6.98%
viability, T/C [12]: 94.2%
viability, T/C [13]: 96%
viability, T/C [14]: 75.6%
viability, T/C [15]: 25.4%
viability, T/C [16]: 12.1%
viability, T/C [17]: 5.1%
viability, T/C [18]: 98.5%
viability, T/C [19]: 103%
viability, T/C [20]: 64.3%
viability, T/C [21]: 25.6%
viability, T/C [22]: 11.1%
viability, T/C [23]: 4.66%
viability, T/C [24]: 89.5%
viability, T/C [25]: 91.8%
viability, T/C [26]: 48.2%
viability, T/C [27]: 19.4%
viability, T/C [28]: 9.59%
viability, T/C [29]: 3.77%
viability, T/C [30]: 96.2%
viability, T/C [31]: 82.3%
viability, T/C [32]: 37.1%
viability, T/C [33]: 24.3%
viability, T/C [34]: 8.67%
viability, T/C [35]: 4.32%

Nc1ncn(C2CC(O)C(CO)O2)c(=O)n1 (stereo not drawn) + CC(CO)NC(=O)c1cc(-c2ccc(Cl)cc2)nn(-c2cnn(C)c2)c1=O
pIC50 [1]: < 6.00
pIC50 [2]: < 6.00
pIC50 [3]: < 6.00
pIC50 [4]: < 6.00
pIC50 [5]: < 6.00
viability, T/C (second compound 0.1 µM, first compound 0.00316 µM): 92.6%
viability, T/C (second compound 0.1 µM, first compound 0.01 µM): 92.2%
viability, T/C [6]: 85%
viability, T/C [7]: 85.3%
viability, T/C [8]: 73%
viability, T/C [9]: 76.3%
viability, T/C (second compound 0.316 µM, first compound 0.00316 µM): 94.6%
viability, T/C (second compound 0.316 µM, first compound 0.01 µM): 90.3%
viability, T/C [12]: 93.3%
viability, T/C [13]: 83.6%
viability, T/C [14]: 80.7%
viability, T/C [15]: 78.2%
viability, T/C (second compound 1 µM, first compound 0.00316 µM): 103%
viability, T/C (second compound 1 µM, first compound 0.01 µM): 96.6%
viability, T/C [18]: 95.7%
viability, T/C [19]: 87.4%
viability, T/C [20]: 82.5%
viability, T/C [21]: 80.2%
viability, T/C (second compound 3.16 µM, first compound 0.00316 µM): 95.3%
viability, T/C (second compound 3.16 µM, first compound 0.01 µM): 93.9%
viability, T/C [24]: 90.2%
viability, T/C [25]: 79.8%
viability, T/C [26]: 79.5%
viability, T/C [27]: 80.9%
viability, T/C (second compound 10 µM, first compound 0.00316 µM): 96.5%
viability, T/C (second compound 10 µM, first compound 0.01 µM): 88.7%
viability, T/C [30]: 88.3%
viability, T/C [31]: 91.5%
viability, T/C [32]: 84.8%
viability, T/C [33]: 76.3%

Cc1ccccc1N=Nc1ccc(NC(=O)c2ccnn2C)c(C)c1
viability, T/C (compound 0.1 µM): 98.6% [middle of 20 runs]
viability, T/C (compound 0.316 µM): 98.5% [middle of 20 runs]
viability, T/C (compound 1 µM): 101% [middle of 20 runs]
viability, T/C (compound 3.16 µM): 94.4% [middle of 20 runs]
viability, T/C (compound 10 µM): 80.9% [middle of 20 runs]
pIC50 (compound alone, run of 06/14/2022): < 5.00
